# From patent US12102638B2 (Urovant Sciences GmbH, priority 2017, dated 2024)
# Columns and labels:
# patients with OAB = experiment: Phase 2b vital sign changes (HR, SBP, DBP); type: in vivo, human
# Description: None led to discontinuation. The overall incidence of orthostatic symptoms was low.
# Small differences in the percent of subjects exceeding categorical heart rate and blood pressure thresholds for vibegron were similar to those in the tolterodine arm.
# β1-AR = target: T1, β1-AR (Homo sapiens, UniProt P08588); experiment: competition binding assay, membranes with recombinant β1-AR
# T1 construct: expressed in transfected cells; membranes used
# [1] = in vivo
# β2-AR = β2-AR (Homo sapiens, UniProt P07550); experiment: competition binding assay, membranes with recombinant β2-AR
# [2] = single-dose PK in patients with renal impairment; type: in vivo, human; settings: for CL/F, geometric LS mean / Fe[urine]48 hr, geometric mean: single 100 mg
# Description: The relationship between clearance and renal function was modeled using linear regression.
# men and women with OAB = experiment: Phase 2b study in OAB, efficacy (voiding diary); type: in vivo, human; settings: for Micturitions, difference from placebo Week 8, LS means / Urgency Episodes, difference from placebo Week 8, LS means: Part 1
# Description: Part 2 was designed to continue to assess the safety and efficacy of concomitant dosing. […] Subjects in both Part 1 and Part 2 had the option of enrolling in a 1-year extension. Participants were required to keep a voiding diary, recording the occurrence of each strong urge, total incontinence, and urge incontinence episode. Efficacy data for Part 1 and Part 2 are summarized herein.
# The total number of urgency incontinence episodes must have exceeded the total number of stress incontinence episodes for all subjects.
# [3] = Healthy Matched Control Subjects
# [4] = vibegron 3 mg once daily, OAB Wet subjects
# [5] = vibegron 15 mg once daily, OAB Wet subjects
# T1 sequence (P08588 whole entry): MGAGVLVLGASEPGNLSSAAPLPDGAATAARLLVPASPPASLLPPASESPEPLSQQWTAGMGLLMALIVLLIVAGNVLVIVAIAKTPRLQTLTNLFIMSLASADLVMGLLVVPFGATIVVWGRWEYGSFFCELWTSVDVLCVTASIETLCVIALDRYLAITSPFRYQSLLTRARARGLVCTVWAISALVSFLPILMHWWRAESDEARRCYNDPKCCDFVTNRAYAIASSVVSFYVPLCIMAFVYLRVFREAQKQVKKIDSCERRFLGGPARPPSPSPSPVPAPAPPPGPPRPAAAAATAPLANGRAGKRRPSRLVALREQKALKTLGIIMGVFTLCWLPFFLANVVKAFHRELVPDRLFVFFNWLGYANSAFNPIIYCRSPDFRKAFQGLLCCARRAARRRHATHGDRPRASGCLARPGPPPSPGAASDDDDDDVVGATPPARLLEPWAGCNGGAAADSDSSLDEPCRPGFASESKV
# Sequence of β2-AR (P07550 whole entry): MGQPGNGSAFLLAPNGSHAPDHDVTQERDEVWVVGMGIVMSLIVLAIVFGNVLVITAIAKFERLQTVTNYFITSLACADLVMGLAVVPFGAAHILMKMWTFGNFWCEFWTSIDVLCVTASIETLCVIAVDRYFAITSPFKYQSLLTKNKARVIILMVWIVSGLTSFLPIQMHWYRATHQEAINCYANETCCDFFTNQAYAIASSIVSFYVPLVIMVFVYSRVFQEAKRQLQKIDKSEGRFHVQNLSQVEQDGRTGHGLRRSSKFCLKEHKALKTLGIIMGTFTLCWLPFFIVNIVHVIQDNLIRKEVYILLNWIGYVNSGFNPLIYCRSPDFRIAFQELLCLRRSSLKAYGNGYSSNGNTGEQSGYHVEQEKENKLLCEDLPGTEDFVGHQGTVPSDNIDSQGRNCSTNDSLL
compound,measurement,setting,value
"O=C(Nc1ccc(C[C@@H]2CC[C@H]([C@H](O)c3ccccc3)N2)cc1)[C@@H]1CCc2nccc(=O)n21 [vibegron, (6S)—N-[4-[[(2S,5R)-5-[(R)-hydroxy(phenyl)methyl]pyrrolidin-2-yl]methyl]phenyl]-4-oxo-7,8-dihydro-6H-pyrrolo[1,2-a]pyrimidine-6-carboxamide]","SBP and DBP mean changes at Week 1 and mean maximum changes over 8 weeks, difference between placebo and vibegron",patients with OAB; 50 mg and 100 mg,< 1 mm Hg
same,percent of subjects with a change from baseline in DBP >15 mmHg,patients with OAB; 100 mg,1.3%
same,"HR mean maximum changes over 8 weeks, difference to placebo",patients with OAB; in vivo,< 2 bpm
same,"DBP change from baseline, mean (95% CI) Max, week 1 to 8",patients with OAB; vibegron 3 mg,"5.03 (3.92, 6.15) mm Hg"
same,"DBP change from baseline, mean (95% CI), week 1",patients with OAB; vibegron 3 mg,"−0.37 (−1.69, 0.95) mm Hg"
same,"HR change from baseline, mean (95% CI) maximum, week 1 to 8",patients with OAB; vibegron 3 mg,"5.57 (4.25, 6.90) bpm"
same,"HR change from baseline, mean (95% CI), week 1",patients with OAB; vibegron 3 mg,"0.36 (−0.90, 1.62) bpm"
same,"SBP change from baseline, mean (95% CI) maximum, week 1 to 8",patients with OAB; vibegron 3 mg,"7.14 (5.18, 9.10) mm Hg"
same,"SBP change from baseline, mean (95% CI), week 1",patients with OAB; vibegron 3 mg,"−0.35 (−2.34, 1.65) mm Hg"
same,"DBP change from baseline, mean (95% CI) Max, week 1 to 8",patients with OAB; vibegron 15 mg,"6.37 (5.20, 7.53) mm Hg"
same,"DBP change from baseline, mean (95% CI), week 1",patients with OAB; vibegron 15 mg,"0.03 (−1.52, 1.59) mm Hg"
same,"HR change from baseline, mean (95% CI) maximum, week 1 to 8",patients with OAB; vibegron 15 mg,"6.56 (5.20, 7.92) bpm"
same,"HR change from baseline, mean (95% CI), week 1",patients with OAB; vibegron 15 mg,"0.35 (−1.15, 1.85) bpm"
same,"SBP change from baseline, mean (95% CI) maximum, week 1 to 8",patients with OAB; vibegron 15 mg,"8.93 (7.18, 10.67) mm Hg"
same,"SBP change from baseline, mean (95% CI), week 1",patients with OAB; vibegron 15 mg,"−0.34 (−2.46, 1.78) mm Hg"
same,"DBP change from baseline, mean (95% CI) Max, week 1 to 8",patients with OAB; vibegron 50 mg,"4.19 (3.10, 5.29) mm Hg"
same,"DBP change from baseline, mean (95% CI), week 1",patients with OAB; vibegron 50 mg,"−0.70 (−2.07, 0.67) mm Hg"
same,"HR change from baseline, mean (95% CI) maximum, week 1 to 8",patients with OAB; vibegron 50 mg,"5.49 (4.28, 6.69) bpm"
same,"HR change from baseline, mean (95% CI), week 1",patients with OAB; vibegron 50 mg,"0.29 (−0.88, 1.46) bpm"
same,"SBP change from baseline, mean (95% CI) maximum, week 1 to 8",patients with OAB; vibegron 50 mg,"7.01 (5.31, 8.70) mm Hg"
same,"SBP change from baseline, mean (95% CI), week 1",patients with OAB; vibegron 50 mg,"−0.79 (−2.65, 1.08) mm Hg"
same,"DBP change from baseline, mean (95% CI) Max, week 1 to 8",patients with OAB; vibegron 100 mg,"4.80 (3.88, 5.72) mm Hg"
same,"DBP change from baseline, mean (95% CI), week 1",patients with OAB; vibegron 100 mg,"−0.69 (−1.72, 0.34) mm Hg"
same,"HR change from baseline, mean (95% CI) maximum, week 1 to 8",patients with OAB; vibegron 100 mg,"6.12 (5.10, 7.15) bpm"
same,"HR change from baseline, mean (95% CI), week 1",patients with OAB; vibegron 100 mg,"0.35 (−0.69, 1.38) bpm"
same,"SBP change from baseline, mean (95% CI) maximum, week 1 to 8",patients with OAB; vibegron 100 mg,"6.51 (5.09, 7.93) mm Hg"
same,"SBP change from baseline, mean (95% CI), week 1",patients with OAB; vibegron 100 mg,"−0.77 (−2.22, 0.68) mm Hg"
same,binding to β1-AR,β1-AR,does not bind
same,"severe TEAEs, SAEs or deaths",[1],"no severe TEAEs, SAEs or deaths"
same,binding to β2-AR,β2-AR,does not bind
same,AUC0-inf higher compared to healthy matched control,[2]; mild renal impairment,49%
same,CLR reduced compared to healthy matched control,[2]; mild renal impairment,39%
same,Cmax higher compared to healthy matched control,[2]; mild renal impairment,96%
same,AUC0-inf higher compared to healthy matched control,[2]; moderate renal impairment,106%
same,CLR reduced compared to healthy matched control,[2]; moderate renal impairment,65%
same,Cmax higher compared to healthy matched control,[2]; moderate renal impairment,68%
same,mean increase in AUC compared to subjects with normal renal function,[2]; moderate renal impairment,1.6 fold
same,AUC0-inf higher compared to healthy matched control,[2]; severe renal impairment,83%
same,CLR reduced compared to healthy matched control,[2]; severe renal impairment,82%
same,Cmax higher compared to healthy matched control,[2]; severe renal impairment,42%
same,"CL/F, geometric LS mean",[2]; [3],64.9 L/h
same,"Fe[urine]48 hr, geometric mean",[2]; [3],7.9%
same,"CL/F, geometric LS mean",[2]; Mild Renal Impairment,43.6 L/h
same,"Fe[urine]48 hr, geometric mean",[2]; Mild Renal Impairment,8.5%
same,"CL/F, geometric LS mean",[2]; Moderate Renal Impairment,31.5 L/h
same,"Fe[urine]48 hr, geometric mean",[2]; Moderate Renal Impairment,5.5%
same,"CL/F, geometric LS mean",[2]; Severe Renal Impairment,35.5 L/h
same,"Fe[urine]48 hr, geometric mean",[2]; Severe Renal Impairment,2.1%
same,CL/F increase per one mL/min/1.73 m^2 increase in eGFR,[2]; slope of linear regression,~0.8%
same,dose-response relationship,men and women with OAB; between 50 and 100 mg once daily,relatively shallow dose-response relationship
same,"Total Incontinence Episodes, difference from placebo Week 8, LS means",men and women with OAB; [4],−0.18
same,"Urgency Incontinence Episodes, difference from placebo Week 8, LS means",men and women with OAB; [4],−0.28
same,"Micturitions, difference from placebo Week 8, LS means",men and women with OAB; vibegron 3 mg once daily,−0.46
same,"Urgency Episodes, difference from placebo Week 8, LS means",men and women with OAB; vibegron 3 mg once daily,−0.18
same,"Total Incontinence Episodes, difference from placebo Week 8, LS means",men and women with OAB; [5],−0.48
same,"Urgency Incontinence Episodes, daily number, Week 8 mean",men and women with OAB; [5],1.12
same,"Urgency Incontinence Episodes, difference from placebo Week 8, LS means",men and women with OAB; [5],−0.57
same,"Micturitions, difference from placebo Week 8, LS means",men and women with OAB; vibegron 15 mg once daily,−0.45
same,"Urgency Episodes, difference from placebo Week 8, LS means",men and women with OAB; vibegron 15 mg once daily,−0.67
